Reference: US8557960B2, “Peptide for augmenting and expression of BDNF and pharmaceutical composition for prevention and treatment of neurodegenerative diseases including Alzheimer's disease or Parkinson's disease, comprising the same” (Sungkyunkwan University, priority 2009, dated 2013)

Tested on: BDNF
Assay: Assay for BDNF expression in dopamine-reactive human cell line SH-SY5Y (Western blotting)
Type: cell-based
Details: SH-SY5Y cells, 12 hrs treatment, FIG. 2
Procedure: SH-SY5Y cells were seeded at a density of 2×10^5 cells/well into 6-well plates (NUNC) and incubated at 34° C. for 12 hrs in a 5% CO2 incubator and then for an additional 12 hrs in the presence of one of NP 2 to 9 at a concentration of 1 pM, 10 pM, 100 pM, 1 nM, 10 nM, 100 nM, or 1 μM. The cells in each well were washed twice with 1 mL of 1×PBS […], treated with 10 μL of protease inhibitor (Amersham) per 1 mL of RIPA, and collected into 1.5 mL tubes using a cell lifter (Corning). After centrifugation at 4° C. and 9000 rpm for 5 min (MiCRO 17 TR, Hnil Science Industrial Co., Ltd.) to pelletize cell membranes, the supernatants containing proteins were transferred into new 1.5 mL tubes and quantitatively measured for protein level using a Bradford assay.
20 μL of each sample was loaded onto 15% acrylamide gel, prepared using a 1.5 mm Western blotting gel caster (Bio-Rad), and run for 2.5 hrs in the presence of an electric field of 100 V using an electrophoresis power supply (EPS 601, Amersham). The proteins run on the gel were transferred onto a PVDF membrane (Polyvinylidene Difluoride, Millipore) at 400 mA for 2.5 hrs in a transfer tank (Mighty small transphor, Amersham) using an electrophoresis power supply (EPS301, GE healthcare). The PVDF membrane was blocked for 1 hr with 7% skim milk (Difco™ Skim milk, BD) and incubated overnight with a mouse anti-human BDNF monoclonal antibody at a dilution ratio of 1:500. Thereafter, the membrane was washed for 2 hrs 0.05% TBST (Tris-Buffered Saline Tween 20) (this buffer was replaced every hour) and incubated for 1 hr with goat anti-mouse IgG:HRP (IgG:Horseradish Peroxidase Conjugate, SC-2005, Santa Cruz Biotechnology) at a ratio of 1:500. After washing the membrane with 0.05% TBST for 2 hrs (the buffer was replaced every hour), proteins were detected using a chemiluminescent HRP substrate kit (Millipore), and the results are shown in FIG. 2.

Substance	BDNF expression (relative level of BDNF to β-actin vs control)
Val-Gly [NP-9]	used at the same or less than was the amount of the tripeptides so as to induce BDNF expression
Met-Thr-Gly [NP-6]	even a very small amount of NP-5 and NP-6 could augment BDNF expression
Met-Asp-Gly [NP-5]	even a very small amount of NP-5 and NP-6 could augment BDNF expression
